The structures appear in SMILES notation. Counter-ions that a name gives are not always drawn.

The test system of one assay is MAPK p38 phosphorylation. The experiment in a line: MAPK p38 Activation Assay (western blot), Panc-1. The note with it: at 10 μM, Panc-1 pancreatic cancer cell line; starred symbols = activation. The class given is cell-based, human. In a few lines: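 Panc-1 cells (KRas G12D) were treated with compound for 6 h at 37 °C, at 10 μM or as serial dilutions for IC50, with 0.3% DMSO. Method 1 used overnight serum-starved cells (0.5% FBS) stimulated with 1.5 ng/ml EGF for 15 min; Method 2 used unstimulated cells in 10% FBS. Phospho-p38 (Thr180/Tyr182) was detected by western blot.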
A general note: A western blot detects proteins with antibodies after separation by electrophoresis.
Turning to `COC1CCCN(c2nc(-c3nccn3C)nn3cc(-c4ccn(C(C)C)n4)c(-c4ccccc4)c23)C1` (racemic) [Compound 21, rac 6-(1-Isopropyl-1H-pyrazol-3-yl)-4-(3-methoxypiperidin-1-yl)-2-(1-methyl-1H-imidazol-2-yl)-5-phenylpyrrolo[2,1-f][1,2,4]triazine], the “% inh of MAPK p38 in Panc-1” value is given as “H* (H* ≥ 100% activation)”.

Consider `CO[C@H]1CC[C@@H](Nc2nc(-c3nccn3C)nn3cc(-c4ccn(C(C)C)n4)c(C)c23)C1` (racemic) [Compound 1, rac 6-(1-Isopropyl-1H-pyrazol-3-yl)-N-((1R,3S)-3-methoxycyclopentyl)-5-methyl-2-(1-methyl-1H-imidazol-2-yl)pyrrolo[2,1-f][1,2,4]triazin-4-amine], for which the “% inh of MAPK p38 in Panc-1” value was “H* (H* ≥ 100% activation)”.

For the compound `COc1cccc(Nc2nc(-c3nccn3C)nn3cc(-c4ccn(C(C)C)n4)c(C)c23)n1` [Compound 7, 6-(1-Isopropyl-1H-pyrazol-3-yl)-N-(6-methoxypyridin-2-yl)-5-methyl-2-(1-methyl-1H-imidazol-2-yl)pyrrolo[2,1-f][1,2,4]triazin-4-amine], the “% inh of MAPK p38 in Panc-1” value is on record as “H* (H* ≥ 100% activation)”.

Regarding `COC[C@@H]1CC[C@@H]1CNc1nc(-c2nccn2C)nn2cc(-c3ccn(C(C)C)n3)c(C)c12` (racemic) [Compound 3, rac 6-(1-Isopropyl-1H-pyrazol-3-yl)-N-(((1S,2R)-2-(methoxymethyl)cyclobutyl)methyl)-5-methyl-2-(1-methyl-1H-imidazol-2-yl)pyrrolo[2,1-f][1,2,4]triazin-4-amine], the “% inh of MAPK p38 in Panc-1” value is reported as “H* (H* ≥ 100% activation)”.

With `COCC1CCN(c2nc(-c3nccn3C)nn3cc(-c4ccn(C(C)C)n4)c(C)c23)C1` (racemic) [Compound 2, rac 6-(1-Isopropyl-1H-pyrazol-3-yl)-4-(3-(methoxymethyl)pyrrolidin-1-yl)-5-methyl-2-(1-methyl-1H-imidazol-2-yl)pyrrolo[2,1-f][1,2,4]triazine], the “% inh of MAPK p38 in Panc-1” value is recorded as “H* (H* ≥ 100% activation)”.

With `COC1CCCN(c2nc(-c3nccn3C)nn3cc(-c4ccn(C(C)C)n4)c(C)c23)C1` (racemic) [Compound 4, rac 6-(1-Isopropyl-1H-pyrazol-3-yl)-5-methyl-2-(1-methyl-1H-imidazol-2-yl)-4-(3-(oxo-γ6-methyl)piperidin-1-yl)pyrrolo[2,1-f][1,2,4]triazine], the “% inh of MAPK p38 in Panc-1” value is “G* (G* = 75-99% activation)”.

As to `COC[C@@H]1CC[C@@H]1CNc1nc(-c2nccn2C)nn2cc(-c3ccn(C(C)C)n3)c(-c3ccccc3)c12` (racemic) [Compound 20, rac 6-(1-Isopropyl-1H-pyrazol-3-yl)-N-(((1S,2R)-2-(methoxymethyl)cyclobutyl)methyl)-2-(1-methyl-1H-imidazol-2-yl)-5-phenylpyrrolo[2,1-f][1,2,4]triazin-4-amine], the “% inh of MAPK p38 in Panc-1” value was “H* (H* ≥ 100% activation)”.

As for `CC(C)n1ccc(-c2cn3nc(-c4nccn4C)nc(O)c3c2-c2ccccc2)n1` [Compound 17, 6-(1-Isopropyl-1H-pyrazol-3-yl)-2-(1-methyl-1H-imidazol-2-yl)-5-phenylpyrrolo[2,1-f][1,2,4]triazin-4-ol], the “% inh of MAPK p38 in Panc-1” value is given as 0 (0 = 0% inhibition).

As to `CO[C@H]1CC[C@@H](Nc2nc(-c3nccn3C)nn3cc(-c4ccn(C(C)C)n4)c(-c4ccccc4)c23)C1` (racemic) [Compound 18, rac 6-(1-Isopropyl-1H-pyrazol-3-yl)-N-((1R,3S)-3-methoxycyclopentyl)-2-(1-methyl-1H-imidazol-2-yl)-5-phenylpyrrolo[2,1-f][1,2,4]triazin-4-amine hydrochloride], the “% inh of MAPK p38 in Panc-1” value was “H* (H* ≥ 100% activation)”.

Another assay deals with Smad2/Smad3 phosphorylation. The experiment in a line: Phospho-Smad2/3 Inhibition Assay (western blot), Panc-1. It counts as cell-based, human. The note with it: at 10 μM, Panc-1 pancreatic cancer cell line; starred symbols = activation. In a few lines: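 Panc-1 cells (KRas G12D), starved overnight in 0.5% FBS, treated 3 h at 37° C with compound at 10 μM final (0.3% DMSO) or serial dilutions for IC50, then stimulated with 10 ng/ml TGF-b1 for 1 h. Phospho-Smad2 (Ser465/467) and phospho-Smad3 (Ser423/425) detected by western blot.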
In the case of `Cc1c(-c2ccn(C(C)C)n2)cn2nc(-c3nccn3C)nc(Nc3cc4n(n3)CCO4)c12` [Compound 91, N-(6-(1-Isopropyl-1H-pyrazol-3-yl)-5-methyl-2-(1-methyl-1H-imidazol-2-yl)pyrrolo[2,1-f][1,2,4]triazin-4-yl)-2,3-dihydropyrazolo[5,1-b]oxazol-6-amine], the “% inh of Smad2/3 phosphorylation in Panc-1” value was 0 (0 = 0% inhibition).

With `CCc1nc(Nc2nc(-c3nccn3C)nn3cc(-c4ccn(C(C)C)n4)c(C)c23)nn1C` [Compound 76, N-(5-Ethyl-1-methyl-1H-1,2,4-triazol-3-yl)-6-(1-isopropyl-1H-pyrazol-3-yl)-5-methyl-2-(1-methyl-1H-imidazol-2-yl)pyrrolo[2,1-f][1,2,4]triazin-4-amine], the “% inh of Smad2/3 phosphorylation in Panc-1” value is listed as “B (B = 26-45% inhibition)”.

Consider `Cc1c(-c2ccn(C(C)C)n2)cn2nc(-c3nccn3C)nc(Nc3cn(C(C)C)nn3)c12` [Compound 78, N-(1-Isopropyl-1H-1,2,3-triazol-4-yl)-6-(1-isopropyl-1H-pyrazol-3-yl)-5-methyl-2-(1-methyl-1H-imidazol-2-yl)pyrrolo[2,1-f][1,2,4]triazin-4-amine], for which the “% inh of Smad2/3 phosphorylation in Panc-1” value is “A (A = 1-25% inhibition)”.

Take `COc1cnc(Nc2nc(-c3nccn3C)nn3cc(-c4ccn(C(C)C)n4)c(C)c23)cn1` [Compound 83, 6-(1-Isopropyl-1H-pyrazol-3-yl)-N-(5-methoxypyrazin-2-yl)-5-methyl-2-(1-methyl-1H-imidazol-2-yl)pyrrolo[2,1-f][1,2,4]triazin-4-amine]: the “% inh of Smad2/3 phosphorylation in Panc-1” value is “B* (B* = 26-45% activation)”.

Turning to `COCc1csc(Nc2nc(-c3nccn3C)nn3cc(-c4ccn(C(C)C)n4)c(C)c23)n1` [Compound 79, N-(6-(1-Isopropyl-1H-pyrazol-3-yl)-5-methyl-2-(1-methyl-1H-imidazol-2-yl)pyrrolo[2,1-f][1,2,4]triazin-4-yl)-4-(methoxymethyl)thiazol-2-amine], the “% inh of Smad2/3 phosphorylation in Panc-1” value is on record as “B* (B* = 26-45% activation)”.

As for `COc1ncc(Nc2nc(-c3nccn3C)nn3cc(-c4ccn(C(C)C)n4)c(C)c23)cn1` [Compound 80, 6-(1-Isopropyl-1H-pyrazol-3-yl)-N-(2-methoxypyrimidin-5-yl)-5-methyl-2-(1-methyl-1H-imidazol-2-yl)pyrrolo[2,1-f][1,2,4]triazin-4-amine], the “% inh of Smad2/3 phosphorylation in Panc-1” value is listed as “B* (B* = 26-45% activation)”.

Turning to `COc1cccnc1Nc1nc(-c2nccn2C)nn2cc(-c3ccn(C(C)C)n3)c(C)c12` [Compound 89, 6-(1-Isopropyl-1H-pyrazol-3-yl)-N-(3-methoxypyridin-2-yl)-5-methyl-2-(1-methyl-1H-imidazol-2-yl)pyrrolo[2,1-f][1,2,4]triazin-4-amine], the “% inh of Smad2/3 phosphorylation in Panc-1” value is “C* (C* = 46-75% activation)”.

On to `COc1nccc(Nc2nc(-c3nccn3C)nn3cc(-c4ccn(C(C)C)n4)c(C)c23)n1` [Compound 86, 6-(1-Isopropyl-1H-pyrazol-3-yl)-N-(2-methoxypyrimidin-4-yl)-5-methyl-2-(1-methyl-1H-imidazol-2-yl)pyrrolo[2,1-f][1,2,4]triazin-4-amine], for which the “% inh of Smad2/3 phosphorylation in Panc-1” value is recorded as “B* (B* = 26-45% activation)”.

Take `COc1ncccc1Nc1nc(-c2nccn2C)nn2cc(-c3ccn(C(C)C)n3)c(C)c12` [Compound 85, 6-(1-Isopropyl-1H-pyrazol-3-yl)-N-(2-methoxypyridin-3-yl)-5-methyl-2-(1-methyl-1H-imidazol-2-yl)pyrrolo[2,1-f][1,2,4]triazin-4-amine]: the “% inh of Smad2/3 phosphorylation in Panc-1” value is “D (D = 76-100% inhibition)”.

As to `COc1ncncc1Nc1nc(-c2nccn2C)nn2cc(-c3ccn(C(C)C)n3)c(C)c12` [Compound 88, 6-(1-Isopropyl-1H-pyrazol-3-yl)-N-(4-methoxypyrimidin-5-yl)-5-methyl-2-(1-methyl-1H-imidazol-2-yl)pyrrolo[2,1-f][1,2,4]triazin-4-amine], the “% inh of Smad2/3 phosphorylation in Panc-1” value is reported as “C* (C* = 46-75% activation)”.

Turning to `Cc1c(-c2ccn(C(C)C)n2)cn2nc(-c3nccn3C)nc(Nc3ncc(C4CC4)o3)c12` [Compound 90, 5-Cyclopropyl-N-(6-(1-isopropyl-1H-pyrazol-3-yl)-5-methyl-2-(1-methyl-1H-imidazol-2-yl)pyrrolo[2,1-f][1,2,4]triazin-4-yl)oxazol-2-amine], the “% inh of Smad2/3 phosphorylation in Panc-1” value was “C* (C* = 46-75% activation)”.

Take `Cc1c(-c2ccn(C(C)C)n2)cn2nc(-c3nccn3C)nc(Nc3ccn(C4CC4)n3)c12` [Compound 84, N-(1-Cyclopropyl-1H-pyrazol-3-yl)-6-(1-isopropyl-1H-pyrazol-3-yl)-5-methyl-2-(1-methyl-1H-imidazol-2-yl)pyrrolo[2,1-f][1,2,4]triazin-4-amine]: the “% inh of Smad2/3 phosphorylation in Panc-1” value is listed as “C* (C* = 46-75% activation)”.

With `Cc1c(-c2ccn(C(C)C)n2)cn2nc(-c3nccn3C)nc(Nc3cnn(C(C)C)n3)c12` [Compound 77, 6-(1-Isopropyl-1H-pyrazol-3-yl)-N-(2-isopropyl-2H-1,2,3-triazol-4-yl)-5-methyl-2-(1-methyl-1H-imidazol-2-yl)pyrrolo[2,1-f][1,2,4]triazin-4-amine], the “% inh of Smad2/3 phosphorylation in Panc-1” value is listed as “C (C = 46-75% inhibition)”.

With `Cc1c(-c2ccn(C(C)C)n2)cn2nc(-c3nccn3C)nc(Nc3nnc(C4CC4)[nH]3)c12` [Compound 81, N-(5-Cyclopropyl-4H-1,2,4-triazol-3-yl)-6-(1-isopropyl-1H-pyrazol-3-yl)-5-methyl-2-(1-methyl-1H-imidazol-2-yl)pyrrolo[2,1-f][1,2,4]triazin-4-amine], the “% inh of Smad2/3 phosphorylation in Panc-1” value is “A* (A* = 1-25% activation)”.

`COc1cc(Nc2nc(-c3nccn3C)nn3cc(-c4ccn(C(C)C)n4)c(C)c23)ccn1` [Compound 87, 6-(1-Isopropyl-1H-pyrazol-3-yl)-N-(2-methoxypyridin-4-yl)-5-methyl-2-(1-methyl-1H-imidazol-2-yl)pyrrolo[2,1-f][1,2,4]triazin-4-amine]: the “% inh of Smad2/3 phosphorylation in Panc-1” value is “B* (B* = 26-45% activation)”.
